Source: US8680058B2, “Selectively targeted antimicrobial peptides and the use thereof” (priority 2006, dated 2014)
“Also recorded” adds a separate entry of the source. Where two headings read alike, the source gives them in different places. No end group written: not given here.

Tests used:
[1] = system: P. aeruginosa; assay: microbe, parasite or virus in culture; type: cell-based, Pseudomonas aeruginosa
Protocol: 2.3 Antimicrobial Activities. The general antimicrobial activities of G10KHc, G10, and tobramycin against clinical isolates of P. aeruginosa were evaluated by minimum inhibitory concentration (MIC) assay as previously described (Eckert et al., 2006) and shown in Table 5. MICs are reported in μM, though for familiarity, 1 μM tobramycin=0.468 μg/mL. P. aeruginosa were grown to log phase and adjusted to ˜1×10^5 cfu/mL in Mueller-Hinton (MH) broth and added to 96-well plates. Two-fold serial dilutions of peptide were then added to bacteria and the plates incubated for 18-24 hours at 37° C. MIC was determined as the concentration of peptide present in the last clear well (no growth). […] In contrast to tobramycin, G10KHc was also effective against aminoglycoside and multiple-antibiotic resistant P. aeruginosa isolated from CF patients (AGR10, MR15). Additionally, as mucoid P. aeruginosa are often associated with reduced susceptibility to antimicrobial agents, we were encouraged to find that G10KHc was active against one such strain, PDO300.

[2] = system: S. mutans; type: cell-based, Streptococcus mutans
Protocol: (§1) 1.3 Determination of antimicrobial activity. The general antimicrobial activity of peptides against planktonic bacteria was determined by a MIC assay in TH broth (all oral streptococci) (Qi et al., 2005).
(§2) S. mutans, S. gordonii Challis (DL1), and S. sanguinis NY101 strains were grown in Todd Hewitt (TH, Fisher) broth medium at 37° C. under anaerobic conditions (80% N2, 10% CO2, and 10% H2). S. mutans strains UA159 (Ajdic et al., 2002), ATCC 25175, and T8 (Rogers, 1975), are wild-type clinical isolates, while comD is a knockout mutant that was constructed previously from the wild-type UA140 background (Qi et al., 2005). Luciferase expressing S. mutans strain JM11 was constructed from UA140 as described (Merritt et al., 2005). Exponentially growing bacterial cells were diluted to ˜1×10^5 cfu/mL in TH and placed into 96-well plates (Fisher). Peptides were then serially diluted and added to the bacteria.

[3] = system: S. sanguinis; type: cell-based, S. sanguinis NY101
Protocol: as §1, §2

[4] = system: S. gordonii; type: cell-based, S. gordonii Challis (DL1)
Protocol: as §1, §2

[5] = system: S. mutans biofilms; assay: Single-species biofilm regrowth after peptide exposure, S. mutans; type: cell-based, Streptococcus mutans; details: 25 μM peptide, 1 min exposure
Protocol: (§3) 1.5 Examination of antimicrobial activity against single-species biofilms. To initiate biofilm formation, ˜1×10^7 bacteria per well (from overnight cultures) were seeded in TH medium (100 μL) to a 96-well flat-bottom plate. For all streptococci except S. mutans, the medium was supplemented with 0.5% (w/v) mannose and glucose. S. mutans UA159 biofilms were grown with 0.5% (w/v) sucrose. Plates were then centrifuged briefly to pellet the cells, and bacteria were incubated for 3-4 hours at 37° C. for biofilm formation. After incubation, the supernatant was carefully removed and biofilms were treated with 25 μM peptide in 1×PBS or 1×PBS alone for 1 min. The peptide solution was then removed and 100 μL TH was added to further dilute any remaining peptide. To minimize biofilm loss, cells were briefly centrifuged after TH addition, after which the supernatants were removed and fresh medium plus appropriate sugars were returned. Cells were then incubated anaerobically at 37° C. and biofilm growth was monitored over time by measuring absorbance at OD600 with a microplate spectrophotometer (Benchmark Plus, BioRad).

[6] = system: S. gordonii biofilms; assay: Single-species biofilm regrowth after peptide exposure, S. gordonii; type: cell-based; details: 25 μM peptide, 1 min exposure
Protocol: as §3

[7] = system: S. sanguinis biofilms; assay: Single-species biofilm regrowth after peptide exposure, S. sanguinis; type: cell-based; details: 25 μM peptide, 1 min exposure
Protocol: as §3

[8] = system: S. mutans JM11 mixed with S. mitis, S. sobrinus, S. gordonii, S. sanguinis; assay: Selectivity against multi-species biofilms of oral streptococci; type: cell-based
Protocol: Selectivity of STAMPs against multi-species biofilms of oral streptococci. To measure selectivity of STAMPs, mixed biofilms were seeded to 48-well plates. Streptococcus mitis, S. sobrinus, S. gordonii, and S. sanguinis were mixed with S. mutans strain JM11 (spectinomycin resistant) at a 1:1:1:1:10 ratio, total of 10^5 cells/well. Biofilms were grown overnight in TH medium with 1% sucrose, 1% dextrose, and 1% mannose, for 18-24 h. Mature biofilms were treated with PBS plus STAMP as described for the single-species biofilm assay, with the same controls. After treatment, biofilms were washed 2× in PBS and then physically disrupted with a sterile pipette tip in 100 μL PBS per well. Cell suspensions were then serially diluted 10-fold to 10^-6. Diluted suspensions were then plated on TH medium and TH supplemented with spectinomycin, 800 μg/mL. The total amount of biofilm killing (all streptococci) was determined by counting colonies from TH-only plates. Controls: 100% of untreated corresponds to the number of cfu/mL recorded from untreated biofilms, 0% survival was obtained from ethanol sterilized samples. S. mutans killing was determined from quantitating colonies on TH-spectinomycin plates, and combined total cfu/mL, was utilized to calculate the ratio of S. mutans:total population. 1:1 ratio indicates no selectivity.

[9] = system: S. mutans UA159 and comD; assay: Binding of fluorescently labeled peptides to S. mutans (fluorescence microscopy); set-up: species or system Streptococcus mutans; details: fluorescently labeled peptide
Source text: To determine whether there was a region within the CSPC16 sequence that was responsible for S. mutans-specific binding, we synthesized a series of fluorescently labeled CSPC16 fragments, and analyzed their ability to bind to S. mutans. The following strategies were utilized in dissecting the CSPC16 sequence (Table 2): First, a series of fragments were constructed by generating deletions of 3 or 4 amino acids, from the N to C terminus, across the CSPC16 sequence (C16-1 to C16-5). Peptides lacking larger portions of the C or N termini of CSPC16 were also synthesized (C16-6 to C16-12). Additionally, peptides with Arg to […] (a positive to negative change in charge) (C16-4) or Phe to Gly substitutions (for a general decrease in hydrophobicity) (C16-3), as well as peptides representing a 4-residue Ala scan of the C16 sequence were constructed (C 16-15 to C16-18). […] These peptides include C16 (SEQ ID NO 1), C16-3 (SEQ ID NO 39), C16-4 (SEQ ID NO 40), C16-5 (SEQ ID NO 41), C16-6 (SEQ ID NO 42), C16-11 (SEQ ID NO 47), C16-12 (SEQ ID NO 5), C16-16 (SEQ ID NO 51), C16-17 (SEQ ID NO 52), and C16-18 (SEQ ID NO 53).
(§4) 1.2 Fluorescent labeling of peptides and fluorescence microscopy. Aliquots of CSPC16 (SEQ ID NO 2), CSP-fragment peptides (Table 2), and C16G2 (SEQ ID NO 4) were labeled with carboxyfluorescein (Sigma) as described previously (Eckert et al., 2006). After peptide cleavage but prior to the bacterial labeling assay, fluorescence intensity per μM peptide was checked fluorimetrically (λex=488 nm, λem=520 nm VersaFluor, BioRad) and found to be relatively similar (data not shown). To evaluate the level of peptide binding to bacteria, streptococci from an overnight culture (OD600 of 0.7-1.0) were washed with phosphate buffered saline (1×PBS), diluted 1:2 into 1×PBS, and exposed to peptide (16 μM) for 5 min at 25° C. After incubation with peptide, unbound agent was removed from the bacteria by three cycles of centrifugation (5 min, 16,000×g) and resuspension in 1×PBS. Labeling of oral streptococci was evaluated using brightfield and fluorescence microscopy (Nikon E400) at a 40× magnification. The digital images utilized for the semi-quantitative binding assessment were acquired with the factory-supplied software (SPOT, Diagnostics).

[10] = system: other oral streptococci; assay: Binding of fluorescently labeled peptides to other oral streptococci; details: fluorescently labeled peptide
Source text: as §4

Substance | MIC ([2]; S. mutans UA159) [µM] | MIC ([2]; S. mutans comD) [µM] | biofilm re-growth after treatment (OD600) [5] | biofilm re-growth after treatment (OD600) [7] | MIC [3] [µM] | MIC [4] [µM] | also measured
KKHRKHRKHRKH (synthetic targeting peptide Cat-1 domain, KH domain) | – | – | – | – | – | – | antimicrobial activity of targeting domain alone ([1]; data not shown): does not have any antimicrobial activity
SGSLSTFFRLFNRSFTQALGK-OH [CSP, reference compound] | 50.8 ± 9.3 | >60 | unaffected | grew similarly to untreated biofilms | – | – | MIC ([2]; S. mutans 25175): >60 µM; MIC ([2]; S. mutans T8): >60 µM; MIC ([3]; S. sanguinis): >60 µM; MIC ([4]; S. gordonii): >60 µM; biofilm re-growth after treatment (OD600) [6]: grew similarly to untreated biofilms
KLFKFLRKHLL-OH [BD2.21, KLFKFLRKHLL] | – | – | – | – | – | – | MIC ([2]; planktonic S. mutans): 5.5 µM
TRRRLFNRSFTQALGKSGGGFKKFWKWFRRF-OH [Peptide C16-33] | – | – | capable of retarding S. mutans biofilm growth | not affected | 13.3 ± 5.8 | 14.6 ± 5.0 | –
NIFEYFLEGGGKLFKFLRKHLL (synthetic selectively/specifically targeted antimicrobial peptide (STAMP) chimeric polypeptide 1903-BD2.21) | – | – | – | – | – | – | impact on total cfu/mL population / other oral streptococci (in words) ([8]; multi-species biofilm, 20 min): some impact on other oral streptococci; reduction of total population ([8]; multi-species biofilm, 20 min): about 30%
TFFRLFTQALGK (synthetic competence stimulating peptide (CSP) fragment peptide C16-3 with internal deletion) | – | – | – | – | – | – | binding to S. mutans (in words) [9]: binding but at a weaker intensity than CSPC16
TFFRLFNRGGGKNLRIIRKGIHIIKKY-NH2 [Peptide M8G2] | 3.25 ± 1.9 | 4.0 ± 2.0 | capable of inhibiting the recovery of S. mutans biofilms | not those of S. sanguinis | 15 ± 2.5 | 20 ± 5.0 | MIC ([2]; S. mutans 25175): 3.5 ± 0.5 µM
TFFRLFNR-OH [CSPM8, TFFRLFNR] | >60 | >60 | – | – | >60 | >60 | MIC ([2]; S. mutans 25175): >60 µM; MIC ([2]; S. mutans T8): >60 µM; binding to other oral streptococci [10]: little or no binding
TFFRLFNRSGGGFKKFWKWFRRF-OH [Peptide M8-33] | 2.5 ± 2.0 | 2.5 ± 2.0 | capable of retarding S. mutans biofilm growth | not affected | 20 ± 2.0 | 10 ± 2.5 | –
TFFRLFNRSFTQALGKGGGKLFKFLRKHLL (synthetic selectively/specifically targeted antimicrobial peptide (STAMP) chimeric polypeptide C16-BD2.21) | – | – | – | – | – | – | ratio of surviving S. mutans to total Streptococci ([8]; 1:1 ratio indicates no selectivity): 0.075; impact on total cfu/mL population / other oral streptococci (in words) ([8]; multi-species biofilm, 20 min): no impact on the total cfu/mL population
TFFRLFNRAAAAALGK (synthetic competence stimulating peptide (CSP) fragment peptide C16-17 with 4-residue Ala scan) | – | – | – | – | – | – | binding to S. mutans (in words) [9]: binding but at a weaker intensity than CSPC16
KKHRKHRKHRKHGGSGGSKNLRRIIRKGIHIIKKYG [Peptide G10KHc] | – | – | – | – | – | – | MIC range [1]: 0.5 to 29 µM; mean MIC [1]: 6.22 µM
FKKFWKWFRRF-OH [Peptide S6L3-33, FKKFWKWFRRF] | 7.0 ± 3.0 | 6.5 ± 2.5 | – | – | 40 ± 7.5 | 20 ± 5.0 | –
TFFRL (synthetic competence stimulating peptide (CSP) fragment peptide C16-11 with C-terminal deletion) | – | – | – | – | – | – | binding to S. mutans (in words) [9]: binding but at a weaker intensity than CSPC16
TFFRLFNRSFTQALGK-OH [CSPC16, TFFRLFNRSFTQALGK] | >60 | >60 | unaffected | grew similarly to untreated biofilms | >60 | >60 | MIC ([2]; S. mutans 25175): >60 µM; MIC ([2]; S. mutans T8): >60 µM; binding to S. mutans (in words) [9]: detected as bound; also recorded: could specifically bind to S. mutans; binding to other oral streptococci [10]: not to other oral streptococci; biofilm re-growth after treatment (OD600) [6]: grew similarly to untreated biofilms
TFFRAAAASFTQALGK (synthetic competence stimulating peptide (CSP) fragment peptide C16-16 with 4-residue Ala scan) | – | – | – | – | – | – | binding to S. mutans (in words) [9]: binding but at a weaker intensity than CSPC16
KNLRIIRKGIHIIKKY-NH2 [Peptide G2, KNLRIIRKGIHIIKKY*] | 12.1 ± 4.5 | 15.3 ± 4.2 | unaffected | grew similarly to untreated biofilms | 33.6 ± 7.5 | 41.3 ± 14.0 | MIC ([2]; S. mutans 25175): 14.8 ± 2.0 µM; MIC ([2]; S. mutans T8): 14.2 ± 1.5 µM; biofilm re-growth after treatment (OD600) [6]: grew similarly to untreated biofilms
